According to patent US20240025886A1, “INHIBITORS OF IGF2BP1-RNA BINDING” (YISSUM RESEARCH DEVELOPMENT COMPANY OF THE HEBREW …, priority 2020, published 2024):
Entries after “also recorded” stand apart in the source; their conditions may differ.

Tests used:
H1299 cells = experiment: Cell proliferation assay (Incucyte), H1299 cells; type: cell-based, human; conditions: H1299, up to 20 mM 7773
Procedure: (§1) ES2, H1299 and HEK293 cells were seeded in a 96 well plate (5×10^3 cells per well) for 24 hours before adding the compound at increasing concentrations. After an additional 24 hours, the plate was incubated in an IncuCyte® S3 Live-Cell Analysis System (Essen BioScience). The wells were filmed for 72 hours, and then analyzed for proliferation rate Using IncuCyte® S3 Live-Cell Analysis System (Essen BioScience)

HEK293 cells = experiment: Cell proliferation assay (Incucyte), HEK293 cells; type: cell-based, human; parameters: dose or concentration left out as unconfirmed; conditions: HEK293, 7773
Procedure: as §1

G9a = G9a (Homo sapiens, UniProt Q96KQ7); experiment: G9a fluorescence polarization enzymatic activity assay; type: biochemical; conditions: increasing concentrations
Procedure: For the small molecule screen, compounds were obtained from the collection maintained at the Grand Israel National Center for Personalized Medicine, consisting of molecules purchased from commercial vendors. Labelled RNA (10 nM) was incubated with recombinant Igf2bp1 protein (400 nM) in FAM-RNA buffer (10 mM Tris pH 8.0, 75 mM KCl, 0.5 mM EDTA, 1 mM DTT, 0.0188 U/μL RNAsin, 0.0005 μg/mL heparin, 0.0001 μg/μL tRNA, 0.01% Triton X-100, 3 mM MgCl2, 0.05% IGEPAL) at room temperature for 15 min. […] of this reaction mix was aliquoted with GNF WDII (USA) into wells of 1536 well plates, with a final concentration of […] compound or DMSO. The plates were spun down and read in a BMG Pherastar FS (Germany) plate reader plate reader, in FP mode with a 485/520/520 polarization filter, calibrated to 35 mP for free fluorescein with similar total intensity as experimental samples. The G9a FP assay was based on using an S-adenosylhomocysteine (SAH)-FITC probe and antibody to SAH to produce a high FP signal when the antibody binds to SAH-FITC. Unlabeled SAH produced by incubation of G9a enzyme with S-adenosylmethionine (SAM) and peptide substrate competes for the antibody and results in a low FP signal. 100% activity means that G9a is fully active and therefore a low FP signal is observed (SAH is produced).

Sequence of G9a (Q96KQ7 whole entry, species assumed): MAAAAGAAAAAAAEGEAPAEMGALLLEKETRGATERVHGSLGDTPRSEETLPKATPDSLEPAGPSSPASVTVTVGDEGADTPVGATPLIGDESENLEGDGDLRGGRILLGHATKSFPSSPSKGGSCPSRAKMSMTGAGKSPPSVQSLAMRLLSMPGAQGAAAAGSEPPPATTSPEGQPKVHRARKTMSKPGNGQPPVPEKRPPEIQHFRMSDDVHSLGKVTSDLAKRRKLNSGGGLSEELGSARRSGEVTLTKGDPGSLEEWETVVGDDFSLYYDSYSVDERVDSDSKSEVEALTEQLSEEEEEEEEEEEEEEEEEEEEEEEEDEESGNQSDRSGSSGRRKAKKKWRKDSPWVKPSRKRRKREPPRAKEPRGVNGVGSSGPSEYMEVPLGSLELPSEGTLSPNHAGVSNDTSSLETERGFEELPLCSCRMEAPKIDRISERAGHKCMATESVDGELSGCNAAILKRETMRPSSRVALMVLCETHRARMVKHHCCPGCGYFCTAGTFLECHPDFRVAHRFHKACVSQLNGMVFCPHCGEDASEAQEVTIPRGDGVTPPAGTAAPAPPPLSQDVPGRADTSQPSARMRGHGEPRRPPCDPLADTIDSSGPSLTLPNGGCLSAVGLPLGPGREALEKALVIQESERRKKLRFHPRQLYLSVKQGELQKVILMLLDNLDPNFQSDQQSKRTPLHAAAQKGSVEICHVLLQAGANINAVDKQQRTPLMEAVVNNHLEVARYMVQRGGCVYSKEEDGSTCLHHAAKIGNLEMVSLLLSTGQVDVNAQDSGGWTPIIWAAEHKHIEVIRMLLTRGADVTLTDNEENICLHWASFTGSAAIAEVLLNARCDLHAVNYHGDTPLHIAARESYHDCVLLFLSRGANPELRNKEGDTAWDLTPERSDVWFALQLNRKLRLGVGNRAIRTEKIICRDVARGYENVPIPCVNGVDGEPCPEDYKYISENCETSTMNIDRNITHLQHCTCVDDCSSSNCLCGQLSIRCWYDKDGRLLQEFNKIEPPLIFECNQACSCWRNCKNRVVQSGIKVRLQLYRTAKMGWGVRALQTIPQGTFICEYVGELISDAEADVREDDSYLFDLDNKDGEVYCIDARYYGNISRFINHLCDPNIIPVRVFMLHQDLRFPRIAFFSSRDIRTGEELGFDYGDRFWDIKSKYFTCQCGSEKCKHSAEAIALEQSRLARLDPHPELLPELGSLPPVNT

`O=C(c1ccc(Cn2cnnn2)cc1)N1CCCC(Nc2ccc3c(c2)OCO3)C1` (stereo not drawn) [Compound 7773] was tested, and the Cell proliferation (H1299 cells) was “remarkably unaffected”, the Cell proliferation (HEK293 cells) was “remarkably unaffected” and the “Inhibition of G9a enzymatic activity” value (G9a) was “almost no effect; also recorded: does not inhibit”.
